# *1 amine or outer side, *2 acyl side, *3 side chain or, on linkers, in order; H or OH if unused. Where a SMILES comes first, the peptide text is derived from it. Bridges are numbered along the chain shown (N, C = ends). Roman numbers before positions name the chains, in order. [ ]: non-standard residue; d: D form. Actinocin(9to1) = Cc1c2oc3c(C)ccc(C(=O)[*:1])c3nc-2c(C(=O)[*:2])c(N)c1=O; NMeV = CN[CH](C(=O)O)C(C)C; Sar = CNCC(=O)O
# Experiments:
# [1] = tested on: NPM1-mutated cell line OCI/AML3; assay: Act-D induced nucleolar disintegration and apoptosis (NPM1/DAPI photographs); format: cell-based; conditions: OCI/AML3, FIG. 3
# Source text: NPM1=Nucleophosmin and DAPI=4′,6-diamidino-2-phenylindole—a fluorescent stain that binds strongly to A-T rich regions in DNA.
# p53 = assay: Western blots of p53 activation in patient tumor cells; format: cell-based, human; conditions: NPM1-mutated AML tumor cells contacted in vitro or in vivo, 2 cycles of 5 consecutive days at 12.5 μg/kg
# NPM1-mutated AML = assay: Treatment of AML patients with dactinomycin alone or with low-dose cytarabine; format: in vivo, human
# Method: FIG. 5 is a chart showing sequencing by the TruSight Myeloid Panel.—mutated genes (*).
# FIG. 7 is a photograph of a computerized tomography (CT) scan showing pneumonitis in a subject administered dactinomycin at 15 μg/kg for 5 days.
# FIGS. 9A and B are a pair of photographs depicting a bone marrow (BM) examination before and after therapy with dactinomycin alone.
# Complete blood count (CBC) d=46, white blood cell 4130/mm^3, neutrophil percent (N=66%), hemoglobin (Hb)=7.7 g/dL, platelet (PLT) count 192.000/mm^3. Erythropoietin (EPO) dosage=17.8 mUl/ml (inappropriate response). Patient started on Darbopoetina.
# Dactinomycin compositions of the disclosure may be administered with FLT3 inhibitors. […] There are two types of FLT3 mutations: internal tandem duplications (ITD) near the juxtamembrane domain of the receptor and point mutations in the activation loop of the tyrosine kinase domain (TKD mutations). TKD mutations comprise approximately 7% of patients, while ITD mutations are less prevalent in pediatrics and AML patients who were previously categorized as having MDS. (Fathi, A. T. et al. Eur. J. Haematol. 2017, 98: 330-336.)
# [2] = Tolerability in rats, 0.5 mg/kg IV, body weight; format: in vivo; conditions: over 7 days post treatment
# Method: (§1) Free and formulated actinomycin D (0.5 mg/kg) was administered via IV
# (§2) In another experiment, rats were also administered a single dose (0.5 mg/kg) of free and formulated Act D via IV (intravenous) injection.
# [3] = Plasma dactinomycin (CMAX, 6 hr) in rat tolerability study, 0.5 mg/kg IV; format: in vivo; conditions: rats, comparison in words
# Method: as §1, §2
# [4] = Pharmacokinetics in rats, single dose 0.3 mg/kg IV; format: in vivo
# Method: Rats administered single dose (0.3 mg/kg) of unformulated and formulated Actinomycin D via IV injection. (FIG. 31)
# Processed plasma samples at indicated times extracted in mixture of methanol and formic acid to determine total (free and encapsulated) API in systemic circulation.
# [5] = Single dose intravenous tolerability in rats, 900 μg/kg; format: in vivo, Female Sprague Dawley rats; conditions: for clinical observations, signs of toxicity: post-dose observation
# Method: A side by side comparison of the tolerability of free actinomycin D (i.e., not in a nanoparticle) and four compositions comprising actinomycin D nanoparticles (NP-ActD) formulations in rats when dosed by intravenous administration.
# Female Sprague Dawley rats (HSd:SD), 6-8 weeks and 150-175 g at dosing were used for these studies. This is a single dose study with observations for 14 days post-dose. On day 1 of the study, each animal received either 900 μg/kg of the free actinomycin D or a NP-ActD formulations (900 μg/kg of the active) in a fixed volume of 1 mL/kg according to the study design in the Table below.
# The following parameters were monitored: clinical observations daily, mortality, body weights, and food consumption. A full necropsy will be conducted on Day 14 post-dose, at which time organ weights and macroscopic findings will be determined. The organs will be preserved for future histology and the lungs, liver, pancreas, spleen, brain and kidneys will be frozen in liquid nitrogen for measurement of actinomycin D/NP-ActD accumulation.
# Blood was collected for pharmacokinetic evaluation following dosing on Day 1 at 0.083, 0.25, 0.5, 1, 2, 6, and 24 hours post dose. Serum samples will be collected for clinical chemistry and whole blood samples for hematology.
# [6] = cited from earlier work
compound,measurement,setting,value
"Cc1c2oc3c(C)ccc(C(=O)NC4C(=O)NC(C(C)C)C(=O)N5CCCC5C(=O)N(C)CC(=O)N(C)C(C(C)C)C(=O)OC4C)c3nc-2c(C(=O)NC2C(=O)NC(C(C)C)C(=O)N3CCCC3C(=O)N(C)CC(=O)N(C)C(C(C)C)C(=O)OC2C)c(N)c1=O (stereo not drawn) [dactinomycin, 2-amino-N,N′-bis(hexadecahydro-2,5,9-trimethyl-6,13-bis(1-methylethyl)-1,4,7,11,14-pentaoxo-1H-pyrrolo(2,1-I)(1,4,7,10,13)oxatetra-azacyclohexadecin-10-yl)-4,6-dimethyl-3-oxo-3H-phenoxazine-1,9-dicarboxamide] (I: TVP[Sar][NMeV] / II: TVP[Sar][NMeV]; ester I:1-I:C, II:1-II:C; linker I:N-II:N via Actinocin(9to1); configuration not given here)",nucleolar disintegration and apoptosis,[1],induced nucleolar disintegration and apoptosis
same,p53 activation (Western blot),p53,p53 activation
same,mutated genes by TruSight Myeloid Panel sequencing after treatment,"NPM1-mutated AML; Patient, FIG. 5","NMP1, IDH2 and STAG2 mutations not detected"
same,bone marrow (BM) examination after therapy,NPM1-mutated AML; before and after therapy,marked reduction of leukemic blast infiltration with partial normal hematopoietic recovery
same,efficacy in clinical trials,"NPM1-mutated AML; clinical trials, AML patients",about 60 % of the patients treated
same,hematological recovery,"NPM1-mutated AML; following one cycle of treatment, FIG. 8",hematological recovery
same,CT scan finding,NPM1-mutated AML; subject administered 15 μg/kg for 5 days,pneumonitis
same,body weight,[2]; listed as free API,significant decrease in body weight
same,body weight,[2]; listed as free dactinomycin,significant decrease in body weight
same,body weight,[2]; listed as unformulated API,adverse effect on body weight
same,"CMAX, total (free and encapsulated) dactinomycin in plasma",[3],lower
same,Theoretical Cmax in Humans,[4]; extrapolated to humans,7.5 ng/mL
same,Cmax,"[4]; rat, plasma, 0.3 mg/kg, rats, IV",60 ng/mL
same,mortality rate,[5]; 13 days post-dose,about 80%
same,additional animals euthanized,"[5]; Day 7 post dose, 6 rats per group",two
same,more animals euthanized,"[5]; Day 9, 6 rats per group",two
same,animals moribund and euthanized,"[5]; day 6 post-dose, 6 rats per group",1 animal
same,body weights,"[5]; rats, 900 μg/kg IV single dose, FIG. 32",consistently decreased body weights
same,"clinical observations, signs of toxicity","[5]; rats, 900 μg/kg IV single dose, listed as free Act D","piloerection, decreased activity, bleeding at the nares, and hunched posture"
same,"clinical observations, signs of toxicity","[5]; rats, 900 μg/kg IV single dose, listed as free ActD",piloerection and discolored urine
same,animals remained,[5]; thirteen days post-dose,1/6
same,AUC0-6 hrs in patients showing adverse events,"[6]; patients showing adverse events, IV 1 mg/m^2 or 1.5 mg/m^2",4 mg·min/L
same,"AUC0-6 hrs, patients with adverse events versus without",[6]; ratio,1.46 times higher
same,AUC0-6 hrs in subjects not showing adverse events,"[6]; subjects not showing adverse events, IV 1 mg/m^2 or 1.5 mg/m^2",2.67 mg·min/L
